Laboratory results reported in PubChem BioAssay AID1963875 (Molecular Pharmacology Branch, DTP, NCI, 2024).

System: KRAS-mutant PDC complex spheroid viability
Experiment: Anticancer human tumor 186277-243-T-J2-PDC patient-derived colon adenocarcinoma cell line growth inhibition [KRAS2]
Conditions: for IC50: curve of first compound; for viability, T/C: stronger effect = lower value
How it was run: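 Combination screen of spheroid viability in tumor-cell co-cultures with endothelial (HUVEC) and mesenchymal stem cell stroma. Each agent was tested in half-log dilutions, topping at clinical Cmax or at 10 microM without a known Cmax.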

[1] = second compound 0.0316 µM, first compound 0.0316 µM
[2] = second compound 0.0316 µM, first compound 0.1 µM
[3] = second compound 0.0316 µM, first compound 0.316 µM
[4] = second compound 0.0316 µM, first compound 1 µM
[5] = second compound 0.0316 µM, first compound 3.16 µM
[6] = second compound 0.0316 µM, first compound 10 µM
[7] = second compound 0.1 µM, first compound 0.0316 µM
[8] = second compound 0.1 µM, first compound 0.1 µM
[9] = second compound 0.1 µM, first compound 0.316 µM
[10] = second compound 0.1 µM, first compound 1 µM
[11] = second compound 0.1 µM, first compound 3.16 µM
[12] = second compound 0.1 µM, first compound 10 µM
[13] = second compound 0.316 µM, first compound 0.0316 µM
[14] = second compound 0.316 µM, first compound 0.1 µM
[15] = second compound 0.316 µM, first compound 0.316 µM
[16] = second compound 0.316 µM, first compound 1 µM
[17] = second compound 0.316 µM, first compound 3.16 µM
[18] = second compound 0.316 µM, first compound 10 µM
[19] = second compound 1 µM, first compound 0.0316 µM
[20] = second compound 1 µM, first compound 0.1 µM
[21] = second compound 1 µM, first compound 0.316 µM
[22] = second compound 1 µM, first compound 1 µM
[23] = second compound 1 µM, first compound 3.16 µM
[24] = second compound 1 µM, first compound 10 µM
[25] = second compound 3.16 µM, first compound 0.0316 µM
[26] = second compound 3.16 µM, first compound 0.1 µM
[27] = second compound 3.16 µM, first compound 0.316 µM
[28] = second compound 3.16 µM, first compound 1 µM
[29] = second compound 3.16 µM, first compound 3.16 µM
[30] = second compound 3.16 µM, first compound 10 µM
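Wherever viability, T/C is given: viability read after seven days of compound exposure; 100% = DMSO vehicle-treated spheroids so lower means less viable.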

SMILES | IC50 (second compound 0.1 µM) | IC50 (second compound 0.316 µM) | IC50 (second compound 1 µM) | IC50 (second compound 3.16 µM) | viability, T/C [7] | viability, T/C [8] | viability, T/C [9] | viability, T/C [10] | viability, T/C [11] | viability, T/C [13] | viability, T/C [14] | viability, T/C [15] | viability, T/C [16] | viability, T/C [17] | viability, T/C [19] | viability, T/C [20] | viability, T/C [21] | viability, T/C [22] | viability, T/C [23] | viability, T/C [25] | also measured
CC1OCC2(CCN(c3cnc(Sc4ccnc(N)c4Cl)c(N)n3)CC2)C1N (stereo not given) + C=CC(=O)N1CCN(c2nc(OCC3CCCN3C)nc3c2CCN(c2cccc4cccc(C)c24)C3)CC1CC#N | > 10000 nM | > 10000 nM | > 10000 nM | < 31.6 nM | 108% | 112% | 110% | 103% | 104% | 113% | 111% | 102% | 110% | 102% | 102% | 99.9% | 101% | 107% | 118% | 1.51% | IC50 (second compound 0.0316 µM): > 10000 nM; viability, T/C [1]: 111%; viability, T/C [2]: 101%; viability, T/C [3]: 108%; viability, T/C [4]: 101%; viability, T/C [5]: 102%; viability, T/C [6]: 116%; viability, T/C [12]: 110%; viability, T/C [18]: 116%; viability, T/C [24]: 88.5%; viability, T/C [26]: 10%; viability, T/C [27]: 0.47%; viability, T/C [28]: 0.22%; viability, T/C [29]: 0.3%; viability, T/C [30]: 1.11%
Cn1nccc1Nc1nccc(-c2cc3c(s2)C(C)(C)N(CCN2CCOCC2)C3=O)n1 + C=CC(=O)N1CCN(c2nc(OCC3CCCN3C)nc3c2CCN(c2cccc4cccc(C)c24)C3)CC1CC#N | 456 nM | 344 nM | 388 nM | < 31.6 nM | 105% | 104% | 70.2% | 5.12% | 9.32% | 101% | 97.1% | 51.8% | 15.8% | 5.05% | 91% | 88.6% | 59.1% | 8.02% | 4.02% | 10.1% | IC50 (second compound 0.0316 µM): 409 nM; viability, T/C [1]: 111%; viability, T/C [2]: 96.7%; viability, T/C [3]: 63%; viability, T/C [4]: 5.23%; viability, T/C [5]: 6.25%; viability, T/C [6]: 6.65%; viability, T/C [12]: 6.37%; viability, T/C [18]: 7.23%; viability, T/C [24]: 4.26%; viability, T/C [26]: 1.3%; viability, T/C [27]: 0.45%; viability, T/C [28]: 0.51%; viability, T/C [29]: 0.15%; viability, T/C [30]: 0.16%
CC(=O)OC12COC1CC(O)C1(C)C(=O)C(O)C3=C(C)C(OC(=O)C(O)C(NC(=O)OC(C)(C)C)c4ccccc4)CC(O)(C(OC(=O)c4ccccc4)C21)C3(C)C (stereo not given) + CC1OCC2(CCN(c3cnc(Sc4ccnc(N)c4Cl)c(N)n3)CC2)C1N | < 10 nM | < 10 nM | < 10 nM | < 10 nM | 2.69% | 2.31% | 2.12% | 2.12% | 2.53% | 3.64% | 1.94% | 1.7% | 1.93% | 2.14% | 3.42% | 3.58% | 2.84% | 3.01% | 3.67% | 1.65% | IC50 (second compound 10 µM): < 10 nM; viability, T/C (second compound 0.1 µM, first compound 0.01 µM): 4.2%; viability, T/C (second compound 0.316 µM, first compound 0.01 µM): 2.83%; viability, T/C (second compound 1 µM, first compound 0.01 µM): 4.63%; viability, T/C (second compound 3.16 µM, first compound 0.01 µM): 2.53%; viability, T/C [26]: 2.04%; viability, T/C [27]: 1.63%; viability, T/C [28]: 1.81%; viability, T/C [29]: 2.09%; viability, T/C (second compound 10 µM, first compound 0.01 µM): 1.96%; viability, T/C (second compound 10 µM, first compound 0.0316 µM): 1.99%; viability, T/C (second compound 10 µM, first compound 0.1 µM): 1.61%; viability, T/C (second compound 10 µM, first compound 0.316 µM): 1.82%; viability, T/C (second compound 10 µM, first compound 1 µM): 1.73%; viability, T/C (second compound 10 µM, first compound 3.16 µM): 1.74%
